The record followed here is patent US8796298B2, “Combination of a B-Raf inhibitor: N-{3-[5-(2-Amino-4-pyrimidinyl)-2-(1,1- dimethylethyl)-1,3-thiazol-4-yl]-2-fluorophenyl}-2,6-difluorobenzenesulfonamide and the Akt inhibitor: N-{ (1S)-2-amino-1-[(3- fluorophenyl)methyl]ethyl}-5-chIoro-4-(4-chIoro- 1 -methyl- 1 H-pyrazol-5-yl)-2-10 …” (GlaxoSmithKline LLC, priority 2009, dated 2014).

One assay concerns MDA-MB-175VII. The assay can be described thus: Cell growth inhibition assay (Cell Titer Glo), MDA-MB-175VII. It is filed as cell-based. Conditions: Homo sapiens, 72 h; MDA-MB-175VII breast; BRAF WT, KRAS WT, PIK3CA H1049L; 3 days; mean ± std; read-out: IC50 values, Single Agent. As to the method: (§1) Human colon tumor lines, Colo205, DLD1, HCC2998, HCT15, HCT8, HT29, KM-12, LS1034, LS174T, RKO, SW1463, SW480, SW837 and T84, and human breast tumor cell lines EFM19 and MDA-MB-175VII were cultured in RPMI 1640 medium containing 10% fetal bovine serum (FBS).
(§2) All cells were cultured for a minimum of 72 hours prior to cell plating. Cells were assayed in a 96-well tissue culture plate (NUNC 136102) of RPMI medium containing 10% FBS for all cells at 1,000 cells per well. […] ATP levels were determined by adding Cell Titer Glo® (Promega) according to the manufacturer's protocol. Briefly, Cell Titer Glo® was added each plate, incubated for 30 minutes then luminescent signal was read on the SpectraMax L plate reader with a 0.5 sec integration time.
(§3) Inhibition of cell growth was estimated after treatment with compound or combination of compounds for three days and comparing the signal to cells treated with vehicle (DMSO). Cell growth was calculated relative to vehicle (DMSO) treated control wells. […]
(§4) The combination effects on the response scale were quantified by Excess Over Highest Single Agent (EOHSA) based on the concept of nonlinear blending as described in detail by Peterson and Novick (2007) and Peterson (2010) [(2;3) [Peterson and Novick, 2007; Peterson, 2010]. […]

In the next assay the test system is EFM19. The assay can be described thus: Cell growth inhibition assay (Cell Titer Glo), EFM19. Conditions: Homo sapiens, EFM-19, 72 h; EFM19 breast; BRAF WT, KRAS WT, PIK3CA WT; 3 days; mean ± std; read-out: IC50 values, Single Agent. It is filed as cell-based. The procedure:
as §1, §2, §3, §4

A further assay deals with SW1463. The assay can be described thus: Cell growth inhibition assay (Cell Titer Glo), SW1463. It is filed as cell-based. The following applies: Homo sapiens, 72 h; SW1463 colon; BRAF WT, KRAS G12C, PIK3CA WT; 3 days; read-out: IC50 values, Single Agent. As to the method:
as §1, §2, §3, §4

For the next assay, the system named is HT29. The assay can be described thus: Cell growth inhibition assay (Cell Titer Glo), HT29. It is filed as cell-based, Human. As to the method: as §1, §2, §3, §4
The test system of another assay is HCT8. The assay can be described thus: Cell growth inhibition assay (Cell Titer Glo), HCT8. In kind it is cell-based. The following applies: Homo sapiens, HCT-8, 72 h; HCT8 colon; BRAF WT, KRAS G13D, PIK3CA E545K; 3 days; mean ± std; read-out: IC50 values, Single Agent. As to the method:
as §1, §2, §3, §4

Another assay has as its system KM-12. The assay can be described thus: Cell growth inhibition assay (Cell Titer Glo), KM-12. In kind it is cell-based. Conditions: Homo sapiens, KM12, 72 h; KM-12 colon; BRAF WT, KRAS WT, PIK3CA WT; 3 days; mean ± std; read-out: IC50 values, Single Agent. The procedure: as §1, §2, §3, §4
The next assay relates to HCT15. The assay can be described thus: Cell growth inhibition assay (Cell Titer Glo), HCT15. In kind it is cell-based. The following applies: Homo sapiens, HCT-15, 72 h; HCT15 colon; BRAF WT, KRAS G13D, PIK3CA D549N, E545K; 3 days; mean ± std; read-out: IC50 values, Single Agent. The procedure:
as §1, §2, §3, §4

A further assay concerns LS1034. The assay can be described thus: Cell growth inhibition assay (Cell Titer Glo), LS1034. The following applies: Homo sapiens, LS-1034, 72 h; LS1034 colon; BRAF WT, KRAS A146T, PIK3CA WT; 3 days; read-out: IC50 values, Single Agent. It is filed as cell-based. The procedure: as §1, §2, §3, §4
In a further assay the test system is T84. The assay can be described thus: Cell growth inhibition assay (Cell Titer Glo), T84. It is filed as cell-based. Conditions: Homo sapiens, 72 h; T84 colon; BRAF WT, KRAS G13D, PIK3CA E542K; 3 days; read-out: IC50 values, Single Agent. The procedure: as §1, §2, §3, §4
The test system of a further assay is SW480. The assay can be described thus: Cell growth inhibition assay (Cell Titer Glo), SW480. In kind it is cell-based. The following applies: Homo sapiens, 72 h; SW480 colon; BRAF WT, KRAS G12C, PIK3CA WT; 3 days; mean ± std; read-out: IC50 values, Single Agent. As to the method: as §1, §2, §3, §4
For the next assay, the system named is DLD1. The assay can be described thus: Cell growth inhibition assay (Cell Titer Glo), DLD1. Conditions: Homo sapiens, DLD-1, 72 h; DLD1 colon; BRAF WT, KRAS G13D, PIK3CA E545K, D549N; 3 days; read-out: IC50 values, Single Agent. It is filed as cell-based. The procedure:
as §1, §2, §3, §4

The subject of another assay is Colo205. The assay can be described thus: Cell growth inhibition assay (Cell Titer Glo), Colo205. It is filed as cell-based, Human. The following applies: for IC50: Homo sapiens, COLO 205, 72 h, Colo205 colon, BRAF V600E, KRAS WT, PIK3CA WT, 3 days, mean ± std, read-out: IC50 values, Single Agent. As to the method:
as §1
(§5) All cells were cultured for a minimum of 72 hours prior to cell plating. Cells were assayed in a 96-well tissue culture plate (NUNC 136102) of RPMI medium containing 10% FBS for all cells at 1,000 cells per well. Approximately 24 hours after plating, cells were exposed to ten, three-fold serial dilutions of compound or the combination of the two agents at a constant molar to molar ratio of 1:10 Compound A to Compound B in RPMI media containing 10% FBS. Cells were incubated in the presence of compounds for 3 days. ATP levels were determined by adding Cell Titer Glo® (Promega) according to the manufacturer's protocol. Briefly, Cell Titer Glo® was added each plate, incubated for 30 minutes then luminescent signal was read on the SpectraMax L plate reader with a 0.5 sec integration time.
(§6) Inhibition of cell growth was estimated after treatment with compound or combination of compounds for three days and comparing the signal to cells treated with vehicle (DMSO). Cell growth was calculated relative to vehicle (DMSO) treated control wells.
(§7) In general, a CI value <0.9, between 0.9 and 1.1, or >1.1 indicates synergy, additivity and antagonism, respectively. […]
The combination effects on the response scale were quantified by Excess Over Highest Single Agent (EOHSA) based on the concept of nonlinear blending as described in detail by Peterson and Novick (2007) and Peterson (2010) [(2;3) [Peterson and Novick, 2007; Peterson, 2010]. […] For single agent and combination treatments, cells were exposed to compounds at a fixed-dose-ratio, and dose response curves were fit to the experimental data and analyzed using regression models. At specified total dose levels of IC50 along the dose response curve, the dose combination (corresponding to IC50) was determined for making EOHSA statistical inferences.

In another assay the test system is HCC2998. The assay can be described thus: Cell growth inhibition assay (Cell Titer Glo), HCC2998. It is filed as cell-based. Conditions: Homo sapiens, HCC 2998, 72 h; HCC2998 colon; BRAF WT, KRAS A146T, PIK3CA WT; 3 days; read-out: IC50 values, Single Agent. The procedure: as §1, §2, §3, §4
A further assay relates to SW837. The assay can be described thus: Cell growth inhibition assay (Cell Titer Glo), SW837. It is filed as cell-based. The following applies: Homo sapiens, 72 h; SW837 colon; BRAF WT, KRAS G12C, PIK3CA WT; 3 days; read-out: IC50 values, Single Agent. As to the method: as §1, §2, §3, §4
A further assay concerns RKO colon line. The assay can be described thus: Cell growth inhibition assay (Cell Titer Glo), RKO. The following applies: Homo sapiens. It is filed as cell-based. The procedure:
as §1, §5, §6
In general, a CI value <0.9, between 0.9 and 1.1, or >1.1 indicates synergy, additivity and antagonism, respectively. In general, the smaller the CI number, the greater is the strength of synergy.
The combination effects on the response scale were quantified by Excess Over Highest Single Agent (EOHSA) based on the concept of nonlinear blending as described in detail by Peterson and Novick (2007) and Peterson (2010) [(2;3) [Peterson and Novick, 2007; Peterson, 2010]. EOHSA values are defined as increases in improvement (here, in ‘percentage points’ (ppts) difference) produced by the combination over the best single agent at its component dose level for the combination. For single agent and combination treatments, cells were exposed to compounds at a fixed-dose-ratio, and dose response curves were fit to the experimental data and analyzed using regression models. At specified total dose levels of IC50 along the dose response curve, the dose combination (corresponding to IC50) was determined for making EOHSA statistical inferences.

For assay [1], the system named is 10 colon lines without BRAF V600E mutation. The assay can be described thus: Cell growth inhibition assay (Cell Titer Glo), colon lines without BRAF V600E mutation. It is filed as cell-based. Conditions: Homo sapiens; the other 10 colon lines without BRAF V600E mutation (KRAS wild type or mutated); read-out: IC50s, compound alone. The procedure:
All cells were cultured for a minimum of 72 hours prior to cell plating. […] Cells were incubated in the presence of compounds for 3 days. ATP levels were determined by adding Cell Titer Glo® (Promega) according to the manufacturer's protocol. Briefly, Cell Titer Glo® was added each plate, incubated for 30 minutes then luminescent signal was read on the SpectraMax L plate reader with a 0.5 sec integration time.
as §6, §7
EOHSA values are defined as increases in improvement (here, in ‘percentage points’ (ppts) difference) produced by the combination over the best single agent at its component dose level for the combination. For single agent and combination treatments, cells were exposed to compounds at a fixed-dose-ratio, and dose response curves were fit to the experimental data and analyzed using regression models. At specified total dose levels of IC50 along the dose response curve, the dose combination (corresponding to IC50) was determined for making EOHSA statistical inferences.

[2] abbreviates: 72 h, RKO colon, BRAF V600E, KRAS WT, PIK3CA H1047R, 3 days, mean ± std, read-out: IC50 values, Single Agent.
The mark [3] stands for this setting: RKO colon line, BRAF V600E and PIK3CA H1047R, single agent, read-out: IC50, compound alone.

Like-named read-outs stand apart in the source and are kept apart here.

Take `Cn1ncc(Cl)c1-c1cc(C(=O)N[C@H](CN)Cc2cccc(F)c2)sc1Cl` [Compound B, N-{(1S)-2-amino-1-[(3-fluorophenyl)methyl]ethyl}-5-chloro-4-(4-chloro-1-methyl-1H-pyrazol-5-yl)-2-thiophenecarboxamide]: the IC50 was 0.844 ± 0.033 µM in the assay on MDA-MB-175VII; 0.444 ± 0.285 µM with EFM19; greater than 10 µM in the assay with SW1463; 1.43 ± 0.073 µM with HT29 (Homo sapiens, HT-29, 72 h, HT29 colon, BRAF V600E, KRAS WT, PIK3CA P449T, 3 days, mean ± std, read-out: IC50 values, Single Agent); 1.55 ± 0.051 µM with HCT8; 4.45 ± 4.2 µM with KM-12. For the same molecule, the IC50 in the assay with HCT15 is 7.77 ± 1.69 µM; in the assay on LS1034 it was greater than 10 µM; in the assay on T84 it was greater than 10 µM; in the assay on SW480, 6.08 ± 0.154 µM; with DLD1, greater than 10 µM; in the assay with Colo205, 3.29 ± 0.242 µM. In addition, the IC50 in the assay on HCC2998 was greater than 10 µM; with SW837, greater than 10 µM; in the assay with RKO colon line (setting [2]), 1.35 ± 0.614 µM; in the assay on RKO colon line (setting [3]), greater than 1 µM.
Regarding `CC(C)(C)c1nc(-c2cccc(NS(=O)(=O)c3c(F)cccc3F)c2F)c(-c2ccnc(N)n2)s1` [Compound A, N-{3-[5-(2-Amino-4-pyrimidinyl)-2-(1,1-dimethylethyl)-1,3-thiazol-4-yl]-2-fluorophenyl}-2,6-difluorobenzenesulfonamide], the IC50 in the assay on MDA-MB-175VII, with EFM19, in the assay on SW1463, with HCT8, in the assay with KM-12 and in the assay with HCT15 was greater than 10 µM throughout. Moreover, the IC50 with LS1034 is greater than 10 µM; with T84, greater than 10 µM; in the assay with SW480 it was greater than 10 µM; with DLD1, greater than 10 µM; in assay [1], greater than 10 µM; with Colo205, 0.013 ± 0.004 µM. The IC50 in the assay on HCC2998 was greater than 10 µM; in the assay with SW837 it was greater than 10 µM; with RKO colon line (setting [2]) it was 4.2 ± 4.03 µM; in the assay on RKO colon line (setting [3]), greater than 1 µM. The “sensitivity to compound alone in words” value with HT29 (HT29, BRAF V600E mutation line) is listed as “highly sensitive”; in the assay on Colo205 (Colo205, BRAF V600E mutation line) it was “highly sensitive”.
